According to patent US20250129044A1 (priority 2021, published 2025):

Target: sodium channel isoforms (Homo sapiens, UniProt P35498)
Type: cell-based
Settings: area under the sodium current trace, step from −120 mV to 0 mV, HEK cells
Experimental: The sodium channel isoforms of interest are stably expressed in Human Embryonic Kidney Cells and the currents that flow through those channels in response to a depolarizing voltage clamp step from −120 mV to 0 mV are measured in the presence of increasing concentrations of the chemical agents. The area under the sodium current trace which correlates to the magnitude of sodium flux through the cell membrane is used to quantify the effects on gating of the channels. Other parameters that are measured in the assay include the peak current, time constant of open state inactivation and the voltage dependence of steady state inactivation properties. The concentration responses are used to determine potency of each chemical agents effects on modulating the sodium channel isoform gating. Such techniques are known to those skilled in the art, and may be developed, using current technologies, into low or medium throughput assays for evaluating compounds for their ability to modulate sodium channel behaviour.

Row | SMILES | Empirical Emax
1 | CC(C)Oc1ncc(C(=O)Nc2c(-c3cc(F)ccc3F)ccnc2C2CCC(F)(F)CC2)cn1 [Example 7, N-[2-(4,4-difluorocyclohexyl)-4-(2,5-difluorophenyl)-3-pyridyl]-2-isopropoxy-pyrimidine-5-carboxamide] | ++++ (++++ indicates a value greater than 7.5)
2 | CC(C)c1ncc(C(=O)Nc2c(-c3ccccc3)ccnc2C2CCCO2)cn1 (racemic) [Example 11, (±)-2-isopropyl-N-(4-phenyl-2-(tetrahydrofuran-2-yl)pyridin-3-yl)pyrimidine-5-carboxamide] | + (+ indicates a value less than 2.0 μM)
3 | CCOc1ncc(C(=O)Nc2c(-c3ccccc3F)ccnc2C2CCC(F)(F)CC2)cn1 [Example 3, N-[2-(4,4-difluorocyclohexyl)-4-(2-fluorophenyl)-3-pyridyl]-2-ethoxy-pyrimidine-5-carboxamide] | ++++ (++++ indicates a value greater than 7.5)
4 | CN(C)c1ncc(C(=O)Nc2c(-c3ccccc3F)ccnc2C2CCC(F)(F)CC2)cn1 [Example 2, N-[2-(4,4-difluorocyclohexyl)-4-(2-fluorophenyl)-3-pyridyl]-2-(dimethylamino)pyrimidine-5-carboxamide] | ++++ (++++ indicates a value greater than 7.5)
5 | CC(C)c1ncc(C(=O)Nc2c(-c3ccccc3F)ccnc2C2CCCOC2)cn1 (stereo not drawn) [Example 16, N-[4-(2-fluorophenyl)-2-tetrahydropyran-3-yl-3-pyridyl]-2-isopropyl-pyrimidine-5-carboxamide] | ++ (++ indicates a value from 2.0 up to 5.0 μM)
6 | CC(C)c1ncc(C(=O)Nc2c(-c3ccccc3F)ccnc2C2CC3(COC3)C2)cn1 [Example 36, N-(4-(2-fluorophenyl)-2-(2-oxaspiro[3.3]heptan-6-yl)pyridin-3-yl)-2-isopropylpyrimidine-5-carboxamide] | +++ (+++ indicates a value from 5.0 up to 7.5 μM)
